# Columns and labels:
# HepG2 = test: Cytotoxicity against human HepG2 cells after 72 hrs by MTT assay; format: functional, cell-based; conditions: HepG2, 72 h
# [1] = Cytotoxicity against mouse S17 cells after 72 hrs by MTT assay; format: functional, cell-based; conditions: S17, 72 h
# SH-SY5Y = test: Cytotoxicity against human SH-SY5Y cells after 72 hrs by MTT assay; format: functional, cell-based
# HeLa [2] = test: Cytotoxicity against human HeLa cells assessed as reduction in cell viability incubated for 48 hrs by MTT assay; format: functional, cell-based
# MCF7 [3] = test: Cytotoxicity against human MCF7 cells assessed as reduction in cell viability incubated for 48 hrs by MTT assay; format: functional, cell-based; conditions: MCF7, 48 h
# HeLa [4] = test: Cytotoxicity against human HeLa cells after 72 hrs by MTT assay; format: functional, cell-based
# A-431 = test: Cytotoxicity against human A431 cells after 72 hrs by MTT assay; format: functional, cell-based; conditions: A-431, 72 h
# A2780 = test: Cytotoxicity against human A2780 cells after 72 hrs by MTT assay; format: functional, cell-based; conditions: A2780, 72 h
# MCF7 [5] = test: Cytotoxicity against human MCF7 cells after 72 hrs by MTT assay; format: functional, cell-based; conditions: MCF7, 72 h
# [6] = Antioxidant activity assessed as ONOO scavenging activity; format: functional
# Bel-7402 = test: Cytotoxicity against human Bel7402 cells by MTT assay; format: functional, cell-based
# A549 [7] = test: Cytotoxicity against human A549 cells by MTT assay; format: functional, cell-based
# XF498 = test: Cytotoxicity against human XF498 cells by SRB assay; format: functional, cell-based
# SK-OV-3 = test: Cytotoxicity against human SKOV3 cells by SRB assay; format: functional, cell-based
# HCT-15 = test: Cytotoxicity against human HCT15 cells by SRB assay; format: functional, cell-based
# SK-MEL-2 = test: Cytotoxicity against human SK-MEL-2 cells by SRB assay; format: functional, cell-based
# A549 [8] = test: Cytotoxicity against human A549 cells by SRB assay; format: functional, cell-based
# HL-60 = test: Antiproliferative activity against human HL60 cells assessed as reduction in cell viability after 3 days by XTT assay; format: functional, cell-based; conditions: HL-60, 72 h
compound,measurement,setting,value
c1cc2c(cc1[C@H]1OC[C@H]3[C@@H]1CO[C@@H]3c1ccc3c(c1)OCO3)OCO2 [SESAMIN],IC50,HepG2,229 to 233 µM
same,IC50,[1],229 to 233 µM
same,IC50,SH-SY5Y,229 to 233 µM
COc1cc(-c2oc3cc(O)cc(O)c3c(=O)c2O)ccc1O [ISORHAMNETIN],IC50,HeLa [2],8.1 to 63.2 µM
same,IC50,MCF7 [3],10.3 to 91.9 µM
COc1cc(-c2cc(=O)c3c(O)c(OC)c(OC)cc3o2)ccc1O [CIRSILENEOL],IC50,HeLa [4],33 to 75 µg/mL
same,IC50,A-431,33 to 75 µg/mL
same,IC50,A2780,33 to 75 µg/mL
same,IC50,MCF7 [5],33 to 75 µg/mL
O=C(/C=C/c1ccc(O)c(O)c1)O[C@@H]1C[C@](O)(C(=O)O)C[C@@H](O)[C@H]1O [CHLOROGENIC ACID],IC50,[6],0.52 µM
C=C1C(=O)O[C@H]2[C@H]1[C@@H](OC(C)=O)C[C@@](C)(O)[C@@]13O[C@@H]1[C@@H](Cl)[C@](C)(O)[C@H]23,IC50,Bel-7402,3.3 to 6 µM
same,IC50,A549 [7],3.3 to 6 µM
CC(C)=CCC[C@H](C)[C@H]1C[C@@H]2OO[C@H]1C=C2C,IC50,XF498,0.1 to 0.87 µg/mL
same,IC50,SK-OV-3,0.1 to 0.87 µg/mL
same,IC50,HCT-15,0.1 to 0.87 µg/mL
same,IC50,SK-MEL-2,0.1 to 0.87 µg/mL
same,IC50,A549 [8],0.1 to 0.87 µg/mL
COc1ccc(-c2oc3cc(OC)c(OC)c(O)c3c(=O)c2OC)cc1OC [ARTEMETIN],IC50,HepG2,229 to 233 µM
same,IC50,[1],229 to 233 µM
same,IC50,SH-SY5Y,229 to 233 µM
COc1ccc(-c2cc(=O)c3c(O)cc(O)cc3o2)cc1 [ACACETIN],IC50,XF498,0.4 to 26.8 µg/mL
same,IC50,SK-OV-3,0.4 to 26.8 µg/mL
same,IC50,HCT-15,0.4 to 26.8 µg/mL
same,IC50,SK-MEL-2,0.4 to 26.8 µg/mL
same,IC50,A549 [8],0.4 to 26.8 µg/mL
C=C1C(=O)O[C@H](C2=C(C)[C@@H](OC)CC2=O)[C@H]1CCC(C)=O,IC50,HeLa [4],33 to 75 µg/mL
same,IC50,A-431,33 to 75 µg/mL
same,IC50,A2780,33 to 75 µg/mL
same,IC50,MCF7 [5],33 to 75 µg/mL
COc1cc2ccc(=O)oc2c(OC)c1O,IC50,XF498,0.4 to 26.8 µg/mL
same,IC50,SK-OV-3,0.4 to 26.8 µg/mL
same,IC50,HCT-15,0.4 to 26.8 µg/mL
same,IC50,SK-MEL-2,0.4 to 26.8 µg/mL
same,IC50,A549 [8],0.4 to 26.8 µg/mL
COc1ccc(-c2cc(=O)c3c(O)c(OC)c(OC)cc3o2)cc1OC,IC50,HeLa [2],8.1 to 63.2 µM
same,IC50,MCF7 [3],10.3 to 91.9 µM
COc1cc(O)c2c(=O)c(OC)c(-c3ccc(O)cc3)oc2c1 [KUMATAKENIN],IC50,HeLa [2],8.1 to 63.2 µM
same,IC50,MCF7 [3],10.3 to 91.9 µM
CC1=CC(=O)C2=C(C)CC[C@@H]3[C@H](OC(=O)[C@H]3C)[C@@H]12 [DESACETOXYMATRICARIN],IC50,XF498,0.4 to 26.8 µg/mL
same,IC50,SK-OV-3,0.4 to 26.8 µg/mL
same,IC50,HCT-15,0.4 to 26.8 µg/mL
same,IC50,SK-MEL-2,0.4 to 26.8 µg/mL
same,IC50,A549 [8],0.4 to 26.8 µg/mL
COc1cc2ccc(=O)oc2cc1OC [SCOPARONE],IC50,HL-60,1.1 to 40.7 µg/mL
CC(C)=CCC[C@H](C)[C@H]1C[C@H]2OO[C@@H]1C=C2C,IC50,XF498,0.2 to 5.43 µg/mL
same,IC50,SK-OV-3,0.2 to 5.43 µg/mL
same,IC50,HCT-15,0.2 to 5.43 µg/mL
same,IC50,SK-MEL-2,0.2 to 5.43 µg/mL
same,IC50,A549 [8],0.2 to 5.43 µg/mL
CC#CC#CCc1ccccc1,IC50,HL-60,1.1 to 40.7 µg/mL
C=C1C(=O)O[C@H]2[C@H]1[C@@H](OC(C)=O)CC(=C)[C@]1(O)C[C@H](Cl)[C@@](C)(O)[C@H]21,IC50,Bel-7402,3.3 to 6 µM
same,IC50,A549 [7],3.3 to 6 µM
C=C1C(=O)O[C@H]2[C@H]1CC[C@@](C)(O)[C@]13O[C@H]1[C@H](Cl)[C@@](C)(O)[C@H]23,IC50,HeLa [4],33 to 75 µg/mL
same,IC50,A-431,33 to 75 µg/mL
same,IC50,Bel-7402,3.3 to 6 µM
same,IC50,A2780,33 to 75 µg/mL
same,IC50,A549 [7],3.3 to 6 µM
same,IC50,MCF7 [5],33 to 75 µg/mL
COc1cc(O)c2c(=O)cc(-c3ccc(O)cc3)oc2c1 [GENKWANIN],IC50,HeLa [2],8.1 to 63.2 µM
same,IC50,[6],1.01 µM
same,IC50,XF498,0.4 to 26.8 µg/mL
same,IC50,SK-OV-3,0.4 to 26.8 µg/mL
same,IC50,MCF7 [3],10.3 to 91.9 µM
same,IC50,HCT-15,0.4 to 26.8 µg/mL
same,IC50,SK-MEL-2,0.4 to 26.8 µg/mL
same,IC50,A549 [8],0.4 to 26.8 µg/mL
C=C1C(=O)O[C@@H]2C[C@@]3(C)C=CC(=O)C(C)=C3C[C@H]12,IC50,XF498,0.4 to 26.8 µg/mL
same,IC50,SK-OV-3,0.4 to 26.8 µg/mL
same,IC50,HCT-15,0.4 to 26.8 µg/mL
same,IC50,SK-MEL-2,0.4 to 26.8 µg/mL
same,IC50,A549 [8],0.4 to 26.8 µg/mL
COc1cc(-c2oc3cc(O)cc(O)c3c(=O)c2OC)cc(O)c1OC,IC50,HeLa [2],8.1 to 63.2 µM
same,IC50,MCF7 [3],10.3 to 91.9 µM
COc1cc2ccc(=O)oc2cc1O [SCOPOLETIN],IC50,[6],1.03 µM
COc1ccc(-c2cc(=O)c3c(O)c(OC)c(OC)cc3o2)cc1O [EUPATORIN],IC50,HeLa [2],8.1 to 63.2 µM
same,IC50,MCF7 [3],10.3 to 91.9 µM
CC1=CCC2[C@@H]1[C@H]1OC(=O)[C@@H](C)[C@@H]1C[C@]1(C)O[C@H]21 (some centres undefined),IC50,HepG2,229 to 233 µM
same,IC50,[1],229 to 233 µM
same,IC50,SH-SY5Y,229 to 233 µM
